Test results as given in patent US9216216B2, “LprG as a chaperone of immune adjuvants” (Case Western Reserve University, priority 2009, dated 2015).
“Also recorded” adds a separate entry of the source.

Columns and labels:
[1] = tested on: bone marrow-derived macrophages; type: cell-based, mice
TLR2 [2] = target: T1, TLR2 (Homo sapiens, UniProt O60603+Q15399); type: cell-based
T1 construct: YFP; expressed in transfected cells

TLR2 [3] = target: T1, TLR2; type: cell-based; remark: listed apart in the source

T1 sequence (O60603 21-784, species assumed): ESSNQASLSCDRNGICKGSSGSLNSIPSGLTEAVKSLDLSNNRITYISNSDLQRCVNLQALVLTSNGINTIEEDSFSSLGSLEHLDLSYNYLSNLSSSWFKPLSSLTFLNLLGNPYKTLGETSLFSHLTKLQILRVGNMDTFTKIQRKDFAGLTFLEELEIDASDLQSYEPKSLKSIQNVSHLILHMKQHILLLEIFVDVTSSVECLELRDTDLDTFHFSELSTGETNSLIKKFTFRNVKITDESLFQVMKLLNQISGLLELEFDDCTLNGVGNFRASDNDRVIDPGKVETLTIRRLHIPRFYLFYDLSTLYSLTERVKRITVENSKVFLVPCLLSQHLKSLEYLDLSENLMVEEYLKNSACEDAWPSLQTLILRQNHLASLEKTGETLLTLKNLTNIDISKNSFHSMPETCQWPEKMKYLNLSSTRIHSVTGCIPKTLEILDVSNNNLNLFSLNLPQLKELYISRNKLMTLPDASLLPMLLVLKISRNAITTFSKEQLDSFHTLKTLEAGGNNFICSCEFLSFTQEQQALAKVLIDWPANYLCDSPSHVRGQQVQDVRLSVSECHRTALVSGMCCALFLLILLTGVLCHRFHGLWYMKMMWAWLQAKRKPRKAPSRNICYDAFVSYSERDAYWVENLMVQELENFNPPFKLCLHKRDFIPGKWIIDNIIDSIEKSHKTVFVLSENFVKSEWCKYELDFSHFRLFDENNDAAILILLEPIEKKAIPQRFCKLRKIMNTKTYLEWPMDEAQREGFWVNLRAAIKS
T1 sequence (Q15399 25-786, species assumed): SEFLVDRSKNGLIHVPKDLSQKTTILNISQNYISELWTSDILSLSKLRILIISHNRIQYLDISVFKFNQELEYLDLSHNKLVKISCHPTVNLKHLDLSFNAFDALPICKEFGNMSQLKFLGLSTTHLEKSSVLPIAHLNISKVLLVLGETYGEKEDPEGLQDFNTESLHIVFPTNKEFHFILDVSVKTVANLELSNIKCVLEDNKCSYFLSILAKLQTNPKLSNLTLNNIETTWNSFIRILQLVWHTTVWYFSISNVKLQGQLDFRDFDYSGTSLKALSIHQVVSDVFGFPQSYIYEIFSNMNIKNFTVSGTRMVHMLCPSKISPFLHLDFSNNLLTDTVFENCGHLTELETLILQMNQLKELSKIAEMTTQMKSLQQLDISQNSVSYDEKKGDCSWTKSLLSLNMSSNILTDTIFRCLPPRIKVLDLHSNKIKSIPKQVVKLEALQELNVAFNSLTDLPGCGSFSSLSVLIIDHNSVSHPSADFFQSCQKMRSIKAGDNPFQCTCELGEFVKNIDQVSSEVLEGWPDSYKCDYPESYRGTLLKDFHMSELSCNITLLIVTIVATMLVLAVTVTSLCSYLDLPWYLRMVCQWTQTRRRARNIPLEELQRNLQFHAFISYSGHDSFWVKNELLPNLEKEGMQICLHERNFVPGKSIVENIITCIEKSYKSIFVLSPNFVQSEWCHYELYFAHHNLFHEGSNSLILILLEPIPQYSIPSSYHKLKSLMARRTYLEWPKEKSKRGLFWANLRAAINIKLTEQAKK

Molecule	TLR dependence of macrophage TNFα response [1]	other results
CpG ODN 1826	intact in knockout cell lines; also recorded: All macrophage types responded	
FSL-1	dependent on TLR2 and TLR6, but not TLR1	
LprG: Mtb lipoprotein LprG (SEQ ID NO: 2), recombinant 6×His-tagged acylated form (protein, listed as Mycobacterium smegmatis, 6xHis tag; acylated) MLGMQTRRRLSAVFASLTLATALIAGCSSGSKQSGAPLPDPTSLVKQSADATKNVKSVHLVLSIQGKISGLPIKTLTGDLTTTPATAAKGNATITLGGSDIDANFVVVDGTLYATLTPNKWSDFGKASDIYDVSVLLNPDNGLGNALANFSNAKAEGRETINGQSTIRISGNVSADAVNKIMPQFNATQPVPSTVWVQETGDHQLVQANLQKSSGNSVQVTLSNWGEQVQVTKPPVSS		TLR2 agonist activity (IL-8 response) (TLR2 [2]): dose-dependent IL-8 response; also recorded: more potent TLR2 agonist than a homologous Mtb lipoprotein, LprA
Acylated LprG-V91W: acylated LprG with the V91W mutation of the putative glycolipid binding site (protein, UniProt P9WK45 27-236, looked up, variant V91W) Lipoarabinomannan carrier …: CSSGSKPSGGPLPDAKPLVEEATAQTKALKSAHMVLTVNGKIPGLSLKTLSGDLTTNPTAATGNWKLTLGGSDIDADFVVFDGILYATLTPNQWSDFGPAADIYDPAQVLNPDTGLANVLANFADAKAEGRDTINGQNTIRISGKVSAQAVNQIAPPFNATQPVPATVWIQETGDHQLAQAQLDRGSGNSVQMTLSKWGEKVQVTKPPVS		TLR2 agonist activity of acylated protein (TLR2 [3]): significantly less potent than wild-type acylated LprG
